This is an account of results in ChEMBL document CHEMBL4229331, “Synthesis and biological evaluation of 173-dicarboxylethyl-pyropheophorbide-a amide derivatives for photodynamic therapy” (Bioorg Med Chem Lett, 2018).

Data set [1] in a line: Drug uptake in nuclear membrane of human ECA109 cells at 5 uM incubated for 4 hrs in dark condition by Hoechst 33342 staining-based confocal fluorescence microscopy. It counts as ADME, cell membranes. The following applies: eca-109, 4 h.
The test system of data set [2] is ECa-109 cell line. In words: Induction of apoptosis in human ECA109 cells assessed as late apoptotic/necrotic cells at 5 uM preincubated for 24 hrs followed by laser irradiation at 16 J/cm'2 and measured after 24 hrs by annexin V/propidium iodide staining-based flow cytometric method (reference value: 0.08%). The data set is classed as functional. On the technique in general: A flow cytometer gives signals particle by particle.

Data set [3] is described as follows: Octanol/water partition coefficient, log P of the compound by shake-flask method. The data set is classed as physicochemical.
A short description of data set [4]: Drug uptake in cytoplasm of human ECA109 cells at 5 uM incubated for 4 hrs in dark condition by Hoechst 33342 staining-based confocal fluorescence microscopy. It counts as ADME, subcellular. The following applies: eca-109, 4 h.
Data set [5] can be described thus: Dark toxicity in human ECA109 cells assessed as decrease in cell viability up to 1 uM after 24 hrs by MTT assay. The note with it: eca-109, 24 h. The data set is classed as cell-based. (In general: Tetrazolium dyes change colour on reduction, which living cells bring about.)
In data set [6] the test system is ECa-109 cell line. Briefly: Induction of apoptosis in human ECA109 cells assessed as early apoptotic cells at 1 uM preincubated for 24 hrs followed by laser irradiation at 16 J/cm'2 and measured after 24 hrs by annexin V/propidium iodide staining-based flow cytometric method (reference value: 2.45%). It counts as functional.
Data set [7] relates to ECa-109 cell line. Briefly: Induction of apoptosis in human ECA109 cells assessed as late apoptotic/necrotic cells at 1 uM preincubated for 24 hrs followed by laser irradiation at 16 J/cm'2 and measured after 24 hrs by annexin V/propidium iodide staining-based flow cytometric method (reference value: 0.08%). It counts as functional.
In data set [8] the test system is ECa-109 cell line. In words: Induction of apoptosis in human ECA109 cells assessed as early apoptotic cells at 5 uM preincubated for 24 hrs followed by laser irradiation at 16 J/cm'2 and measured after 24 hrs by annexin V/propidium iodide staining-based flow cytometric method (reference value: 2.45%). The data set is classed as functional.
Data set [9] in a line: Dark toxicity in human ECA109 cells assessed as cell viability at 5 uM after 24 hrs by MTT assay (reference value: 80%). It counts as cell-based, ECa-109. The following applies: read-out: Activity.
A short description of data set [10]: […] assessed as singlet oxygen release by measuring DPBF oxidation rate in presence of 650 nm light by UV-vis spectrophotometer. The data set is classed as functional.
Data set [11] has as its system ECa-109 cell line. Briefly: Induction of apoptosis in human ECA109 cells assessed as increase in late apoptotic/necrotic cells preincubated for 24 hrs followed by laser irradiation at 16 J/cm'2 and measured after 24 hrs by annexin V/propidium iodide staining-based flow cytometric method. The data set is classed as functional, cell-based.
The subject of data set [12] is ECa-109 cell line. Briefly: Decrease in tumor volume in human ECA109 cells xenografted in BALB/c nude mouse at 3 mg/kg, iv measured at 21 days post treatment in absence of laser irradiation. It counts as ADME, organism-based. The following applies: in vivo, 504 h.
The test system of data set [13] is ECa-109 cell line. In words: Photocytotoxicity against human ECA109 cells assessed as decrease in cell viability at 1 uM preincubated for 24 hrs followed by laser irradiation at 1 to 32 J/Cm'2 by MTT assay. It counts as functional, cell-based.
Data set [14] relates to ECa-109 cell line. Briefly: Antitumor activity against human ECA109 cells xenografted in BALB/c nude mouse assessed as decrease in tumor volume at 3 mg/kg, iv measured at 3 to 21 days post treatment in presence of 100 J/cm2 laser irradiation. The data set is classed as functional, organism-based. In general terms: In xenograft studies the graft and the host belong to different species.

Active and inactive are the calls of the source. The calls are words filed in the database; no cut-off is given here.

By logP is commonly meant the decadic logarithm of the partition coefficient of the neutral form, usually between octanol and water. Read a high logP as a more lipophilic compound. In the case of `CCC1=C(C)c2cc3[nH]c(cc4nc(c5c6[nH]c(cc1n2)c(C)c6C(=O)C5)[C@@H](CCC(=O)N(CCC(=O)O)CCC(=O)O)[C@@H]4C)c(C)c3C(C)OC` (stereo partly specified), the Drug uptake result in data set [1] and in data set [4] was “Active” each time. In addition, the Activity in data set [2] is 81.22%; in data set [5], “Non-Toxic”; in [6], 7.38%; in data set [7], 60.46%; in [8], 5.41%; in data set [11], “Dose-dependent effect”. Further, the Activity entry in data set [12] is “Non-Toxic”. Further, in data set [3], the logP worked out at 2.3. Further, in [9], the viability at 24 h, 5 µM is 50%. The K in data set [10] is 0.0596 min⁻¹. Also, the result in [13] and in data set [14] was Active.
With `C=Cc1c(C)c2cc3nc(c4c5[nH]c(cc6nc(cc1[nH]2)C(C)=C6CC)c(C)c5C(=O)C4)[C@@H](CCC(=O)N(CCC(=O)OC)CCC(=O)OC)[C@@H]3C`, the lipophilicity (logP) in [3] is 3.3.
In data set [3], `CCCCCOC(C)c1c(C)c2cc3nc(c4c5[nH]c(cc6nc(cc1[nH]2)C(C)=C6CC)c(C)c5C(=O)C4)[C@@H](CCC(=O)N(CCC(=O)O)CCC(=O)O)[C@@H]3C` (stereo partly specified) returned a logP of 3.1. Besides, the Activity result in [5] is “Non-Toxic”. The viability at 24 h, 5 µM in data set [9] was determined as 50%. Further, the K in data set [10] was 0.0241 min⁻¹. In addition, the outcome in [13] was Active.
For `C=Cc1c(C)c2cc3nc(c4c5[nH]c(cc6nc(cc1[nH]2)C(C)=C6CC)c(C)c5C(=O)C4)[C@@H](CCC(=O)O)[C@@H]3C`, in data set [10], the K amounted to 0.0578 min⁻¹.
Regarding `CCCOC(C)c1c(C)c2cc3nc(c4c5[nH]c(cc6nc(cc1[nH]2)C(C)=C6CC)c(C)c5C(=O)C4)[C@@H](CCC(=O)N(CCC(=O)O)CCC(=O)O)[C@@H]3C` (stereo partly specified), in [3], the logP was 2.7. For the same molecule, the Activity result in [5] is recorded as “Non-Toxic”. Besides, the viability at 24 h, 5 µM in [9] stood at 50%. In addition, the K in [10] came out at 0.0266 min⁻¹. Further, the result in data set [13] was Active.
